Data as given in PubChem BioAssay (NCI).
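1) Cells in 96-well plates. 2) Compound, 48 h, 5 concentrations. 3) Linear interpolation between surrounding doses. 4) Unreached endpoint = highest concentration. GI50: concentration for 50% inhibition of growth. TGI denotes the concentration required for complete inhibition of growth.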

Key:
Assay in all cases: NCI anticancer screen, dose series, 48 h
[1] = tested on: 786-0 renal
[2] = tested on: A498 renal
[3] = tested on: A549 NSCLC
[4] = tested on: ACHN renal
[5] = tested on: BT-549 breast
[6] = tested on: CAKI-1 renal
[7] = tested on: CCRF-CEM leukemia
[8] = tested on: COLO 205 colon
[9] = tested on: DU-145 prostate
[10] = tested on: EKVX NSCLC
[11] = tested on: HCC-2998 colon
[12] = tested on: HCT-116 colon
[13] = tested on: HCT-15 colon
[14] = tested on: HL-60(TB) leukemia
[15] = tested on: HOP-62 NSCLC
[16] = tested on: HOP-92 NSCLC
[17] = tested on: HS 578T breast
[18] = tested on: HT29 colon
[19] = tested on: IGROV1 ovarian
[20] = tested on: K-562 leukemia
[21] = tested on: KM12 colon
[22] = tested on: LOX IMVI melanoma
[23] = tested on: M14 melanoma
[24] = tested on: MALME-3M melanoma
[25] = tested on: MCF7 breast
[26] = tested on: MDA-MB-231 breast
[27] = tested on: MDA-MB-435
[28] = tested on: MOLT-4 leukemia
[29] = tested on: NCI-H226 lung
[30] = tested on: NCI-H23 lung
[31] = tested on: NCI-H460 lung
[32] = tested on: NCI-H522 lung
[33] = tested on: NCI/ADR-RES ovarian
[34] = tested on: OVCAR-3 ovarian
[35] = tested on: OVCAR-4 ovarian
[36] = tested on: OVCAR-5 ovarian
[37] = tested on: OVCAR-8 ovarian
[38] = tested on: PC-3 prostate
[39] = tested on: RPMI-8226 leukemia
[40] = tested on: RXF 393 renal
[41] = tested on: SF-268 CNS
[42] = tested on: SF-295 CNS
[43] = tested on: SF-539 CNS
[44] = tested on: SK-MEL-2 melanoma
[45] = tested on: SK-MEL-28 melanoma
[46] = tested on: SK-MEL-5 melanoma
[47] = tested on: SK-OV-3 ovarian
[48] = tested on: SN12C renal
[49] = tested on: SNB-19 CNS
[50] = tested on: SNB-75 CNS
[51] = tested on: SR leukemia
[52] = tested on: SW-620 colon
[53] = tested on: T-47D breast
[54] = tested on: TK-10 renal
[55] = tested on: U251 CNS
[56] = tested on: UACC-257 melanoma
[57] = tested on: UACC-62 melanoma
[58] = tested on: UO-31 renal

Compound `COc1ccc(-c2n[nH]nc2-c2cc(OC)c3c(c2OC)OCO3)cc1` has a GI50 [1] of 3.07 µM, a TGI [1] of 71.9 µM and a GI50 [2] of 312 nM. The TGI [2] was 6.38 µM, the GI50 [3] was 700 nM and the TGI [3] was greater than 58.8 µM. It also gave a GI50 [4] of 9.16 µM, a TGI [4] greater than 100 µM and a GI50 [5] of 544 nM. It also gave a TGI [5] of 25.9 µM, a GI50 [6] of 839 nM and a TGI [6] greater than 60.1 µM. The GI50 [7] was 565 nM, the TGI [7] was greater than 100 µM and the GI50 [8] was 1190 nM. For the same compound, the TGI [8] was 5.57 µM, the GI50 [9] was 1610 nM and the TGI [9] was 13.6 µM. The GI50 [10] was 2800 nM, the TGI [10] was 39.7 µM and the GI50 [11] was 1700 nM. For the same compound, the TGI [11] was 19.3 µM, the GI50 [12] was 424 nM and the TGI [12] was 19.2 µM. The GI50 [13] was 546 nM, the TGI [13] was greater than 100 µM and the GI50 [14] was 293 nM. The TGI [14] was 975 nM, the GI50 [15] was 1450 nM and the TGI [15] was greater than 66.1 µM. The GI50 [16] was 685 nM, the TGI [16] was 22.6 µM and the GI50 [17] was 958 nM. It also gave a TGI [17] of 15 µM, a GI50 [18] of 480 nM and a TGI [18] of 13.7 µM. The GI50 [19] was 885 nM, the TGI [19] was greater than 68 µM and the GI50 [20] was 277 nM. The TGI [20] was greater than 82.4 µM, the GI50 [21] was 426 nM and the TGI [21] was 44.7 µM. The GI50 [22] was 746 nM, the TGI [22] was 19 µM and the GI50 [23] was 433 nM. It also gave a TGI [23] of 19.5 µM, a GI50 [24] of 1340 nM and a TGI [24] greater than 100 µM. The GI50 [25] was 480 nM, the TGI [25] was 35.2 µM and the GI50 [26] was 1710 nM. It also gave a TGI [26] of 17.4 µM, a GI50 [27] of 227 nM and a TGI [27] of 761 nM. For the same compound, the GI50 [28] was 463 nM, the TGI [28] was 33.1 µM and the GI50 [29] was 9.69 µM. For the same compound, the TGI [29] was greater than 92.6 µM, the GI50 [30] was 1250 nM and the TGI [30] was 26.5 µM. It also gave a GI50 [31] of 409 nM, a TGI [31] of 15.9 µM and a GI50 [32] of 486 nM. The TGI [32] was 3.67 µM, the GI50 [33] was 368 nM and the GI50 [34] was 378 nM. It also gave a TGI [34] of 2710 nM, a GI50 [35] of 4.81 µM and a TGI [35] greater than 76.3 µM. It also gave a GI50 [36] of 4.68 µM, a TGI [36] greater than 100 µM and a GI50 [37] of 2020 nM. For the same compound, the TGI [37] was greater than 69 µM, the GI50 [38] was 1870 nM and the TGI [38] was greater than 100 µM. It also gave a GI50 [39] of 751 nM, a TGI [39] of 37.7 µM and a GI50 [40] of 1100 nM. The TGI [40] was 5.37 µM, the GI50 [41] was 2980 nM and the TGI [41] was 54.3 µM. It also gave a GI50 [42] of 658 nM, a TGI [42] of 5.67 µM and a GI50 [43] of 1320 nM. It also gave a TGI [43] of 5.4 µM, a GI50 [44] of 596 nM and a TGI [44] of 11.4 µM. It also gave a GI50 [45] of 1950 nM, a TGI [45] greater than 100 µM and a GI50 [46] of 684 nM. For the same compound, the TGI [46] was 17.7 µM, the GI50 [47] was 1270 nM and the TGI [47] was 9.3 µM. The GI50 [48] was 4.86 µM, the TGI [48] was 83.7 µM and the GI50 [49] was 3.82 µM. The TGI [49] was greater than 100 µM, the GI50 [50] was 573 nM and the TGI [50] was 3.96 µM. For the same compound, the GI50 [51] was 299 nM, the TGI [51] was 22.6 µM and the GI50 [52] was 348 nM. The TGI [52] was greater than 95.6 µM, the GI50 [53] was 1730 nM and the TGI [53] was greater than 100 µM. It also gave a GI50 [54] of 4.85 µM, a TGI [54] of 79.8 µM and a GI50 [55] of 817 nM. For the same compound, the TGI [55] was 11 µM, the GI50 [56] was 2800 nM and the TGI [56] was greater than 100 µM. The GI50 [57] was 553 nM, the TGI [57] was 14 µM and the GI50 [58] was 3.83 µM. For the same compound, the TGI [58] was 46.6 µM.
